In the assay the test system is IL-2 production in Jurkat cell. As to the kind of experiment: Jurkat IL-2 Production Assay. Type of assay: cell-based. The conditions noted are these: Homo sapiens, Jurkat cell (ATCC), PHA stimulation with 1% FBS or PMA/Ionomycin with 30% FBS (which one not stated), 18-20 h incubation. On the procedure:
Cell: Jurkat cell (ATCC) was grown in RPMI 1640 with 10% FBS and 1% penicillin/streptomycin. The cell density was kept at 1.2˜1.8×10^6/mL in culture flask before seeding into culture plate, and the cell density in the plate was 0.5×10^6/200 μL/well.
Culture media: RPMI 1640 with 1% FBS or 30% FBS for high serum assay.
Test compound: serial dilution was done in 100% DMSO, and intermediate dilution was done with RPMI 1640 medium with 1% FBS. The DMSO final concentration in culture well was 0.25%.
Stimulant: PHA (Sigma#L9017-10MG) was used for the assay with 1% FBS in culture medium, and added after 10 minutes exposure of cell to compound/DMSO. The […] final concentration in culture well was 5 μg/mL. PMA (Sigma# P-8139 5MG)/Ionomycin (Sigma# I0634-5MG) was used for the assay with 30% FBS in culture medium, and added at same time point as the 1% FBS culture assay. The final concentration of PMA was 50 ng/mL, and Ionomycin final concentration was 500 ng/mL.
Incubation: at 37° C. with 5% CO2 and 95% humidity for 18 h ˜20 h.
IC50: IC50 was calculated with the data analysis software XLfit4, General Pharmacology model 251.

Consider `Cc1cc(S(C)(=O)=O)ncc1-c1ccc2[nH]c(-c3cncc(F)c3C)cc2c1` [Example 1, 2-(5-fluoro-4-methyl-pyridin-3-yl)-5-(6-methanesulfonyl-4-methyl-pyridin-3-yl)-1H-indole], for which half-maximal inhibition (IC50) was put at 29 nM.

(Values after patent publication US20130109720A1, “INDOLE INHIBITORS OF CRAC” (Hoffmann-La Roche Inc., priority 2011, published 2013).)
